Data on 18 compounds can be found in patent US20090312349A1, “ANTI-INFLAMMATORY MEDICAMENTS” (priority 2004, published 2009).

One assay deals with p38 MAP kinase (Homo sapiens, UniProt Q16539). Description: P38 MAP kinase binding assay (fluorescence competition with SKF 86002). Conditions: time-dependent if the IC50 values decrease with the reaction time (more than two-fold in four hours). As to the method: The reaction was initiated by addition of the enzyme. […] By comparison of rfu (relative fluorescence unit) values with that of a control (in the absence of an inhibitor), the percentage of inhibition at each concentration of the inhibitor was calculated. IC50 value for the inhibitor was calculated from the % inhibition values obtained at a range of concentrations of the inhibitor using Prism. When time-dependent inhibition was assessed, the plate was read at multiple reaction times such as 0.5, 1, 2, 3, 4 and 6 hours. The IC50 values were calculated at the each time point. An inhibition was assigned as time-dependent if the IC50 values decrease with the reaction time (more than two-fold in four hours).

The test system of assay [1] is TNF-alpha release from human peripheral blood mononuclear leukocytes. Description: Human peripheral blood mononuclear leukocyte cell assay (LPS-induced TNF-alpha release, ELISA). Format: cell-based. Particulars: 25 ng/mL LPS, 16 hours, read-out: IC50, uM (inhibition of TNF-alpha release). As to the method:
The quantity of LPS-induced tumor necrosis factor-alpha (TNF-alpha) cytokine release is measured by a commercially available Enzyme-Linked Immunosorbent Assay (ELISA) kit. Test compounds are evaluated for their ability to inhibit TNF-alpha release.

For assay [2], the target named is T1, phospho p-38 alpha kinase (Homo sapiens, UniProt Q16539).
T1 construct: purchased Panvera
In words: P-38 alpha kinase assay (spectrophotometric, pyruvate kinase/lactate dehydrogenase coupled). It counts as biochemical. Conditions: Table 5; for IC50: assay not named, read-out: uM.

Assay [3] has as its target phosphorylated p-38-alpha kinase (Homo sapiens, UniProt Q16539). In words: P-38 alpha kinase assay P1. Particulars: Method P1; for IC50: 2 h pre-incubation before ATP; for Results, % @ concentration μM: @ 1.0 μM. It counts as biochemical.
The target of assay [4] is T2, B-Raf(V599E) kinase (Homo sapiens, UniProt P15056, V600E). Description: biochemical. Particulars: for IC50: Method B2, construct 2; for inhibition at 10 µM / inhibition at 1 µM: read-out: Results, % @ concentration μM. As to the method: (§1) The test compounds were incubated with the reaction mixture at 30° C. for 2 h. […] The reaction rate was calculated using the 1.5 h to 2.5 h time frame. […] IC50 values were calculated from a series of percent inhibition values determined at a range of inhibitor concentrations using software routines as implemented in the GraphPad Prism software package.
Same as assay B1 except that (1) construct 2 was employed at a nominal concentration of 2 nM (2) the reaction was pre-incubated at 30° C. for 1 h prior to initiation with ATP (3) a reading time frame of 0.5 h to 1.5 h.
Target sequence in this assay (P15056 433-726 V600E): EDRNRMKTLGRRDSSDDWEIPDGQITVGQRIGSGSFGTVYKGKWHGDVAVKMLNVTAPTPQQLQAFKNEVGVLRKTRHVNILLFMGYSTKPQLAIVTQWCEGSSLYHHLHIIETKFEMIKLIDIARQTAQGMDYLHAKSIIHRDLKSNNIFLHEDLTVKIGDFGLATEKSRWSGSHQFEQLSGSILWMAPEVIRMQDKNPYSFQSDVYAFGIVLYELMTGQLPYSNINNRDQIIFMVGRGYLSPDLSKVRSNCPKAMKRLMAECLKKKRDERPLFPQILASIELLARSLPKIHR

For assay [5], the target named is T3, KDR kinase (Homo sapiens, UniProt P35968, DEL940-989/E990V). Description: KDR kinase assay K1. Format: biochemical. Conditions: read-out: Results, % @ concentration μM, Method K1; @ 10 μM. The procedure:
(§2) IC50 values were calculated from a series of percent inhibition values determined at a range of inhibitor concentrations using software routines as implemented in the GraphPad Prism software package.

Assay [6] addresses T4, Abl kinase (Homo sapiens, UniProt P00519).
T4 sequence (P00519 229-512): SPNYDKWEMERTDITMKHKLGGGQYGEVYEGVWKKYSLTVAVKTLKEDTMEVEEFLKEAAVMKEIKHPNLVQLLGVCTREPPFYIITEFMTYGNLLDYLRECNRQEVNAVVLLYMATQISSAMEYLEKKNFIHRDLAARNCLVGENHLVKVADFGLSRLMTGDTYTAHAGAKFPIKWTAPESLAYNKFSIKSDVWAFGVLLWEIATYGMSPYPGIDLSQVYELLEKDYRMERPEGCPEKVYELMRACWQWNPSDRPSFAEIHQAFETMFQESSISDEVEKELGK
Description: Abl kinase assay A1. Format: biochemical. Particulars: read-out: Results, % @ concentration μM, Method A1; @ 1 μM. As to the method:
as §2

In assay [7] the target is T3, KDR kinase. In words: KDR kinase assay K2.
Assay [8] has as its target T2, B-Raf(V599E) kinase. In words: B-Raf(V599E) kinase assay B1. Format: biochemical. Conditions: Method B1; construct 1. The procedure: as §1
Target sequence in this assay (P15056 with tags, fused parts or gaps V600E): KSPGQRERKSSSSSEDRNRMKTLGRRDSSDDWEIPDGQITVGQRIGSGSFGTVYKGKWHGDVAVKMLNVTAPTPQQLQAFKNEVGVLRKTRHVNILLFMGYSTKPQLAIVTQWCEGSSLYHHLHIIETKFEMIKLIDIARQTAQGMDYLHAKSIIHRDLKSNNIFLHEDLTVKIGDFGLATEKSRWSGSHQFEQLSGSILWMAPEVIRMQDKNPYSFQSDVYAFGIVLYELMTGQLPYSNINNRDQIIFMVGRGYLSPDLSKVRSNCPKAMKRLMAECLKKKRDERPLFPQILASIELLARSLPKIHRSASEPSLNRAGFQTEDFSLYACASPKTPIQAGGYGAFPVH
For assay [9], the target named is T4, Abl kinase. In words: Abl kinase assay A2. Particulars: Method A2; 2 h pre-incubation, 0.5 mM ATP. It counts as biochemical. As to the method:
as §2

phosphorylated p-38-alpha kinase, sequence (Q16539 1-360 isoform Q16539-2): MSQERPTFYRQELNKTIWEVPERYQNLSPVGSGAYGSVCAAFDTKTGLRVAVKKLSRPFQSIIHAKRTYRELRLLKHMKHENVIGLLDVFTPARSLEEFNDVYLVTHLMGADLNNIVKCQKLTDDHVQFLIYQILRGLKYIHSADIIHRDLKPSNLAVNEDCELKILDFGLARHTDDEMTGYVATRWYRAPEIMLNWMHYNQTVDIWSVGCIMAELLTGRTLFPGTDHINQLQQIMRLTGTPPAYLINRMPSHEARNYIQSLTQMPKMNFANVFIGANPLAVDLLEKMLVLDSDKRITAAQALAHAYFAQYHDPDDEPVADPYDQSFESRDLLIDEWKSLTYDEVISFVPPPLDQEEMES
T3 sequence (P35968 with tags, fused parts or gaps DEL940-989/E990V): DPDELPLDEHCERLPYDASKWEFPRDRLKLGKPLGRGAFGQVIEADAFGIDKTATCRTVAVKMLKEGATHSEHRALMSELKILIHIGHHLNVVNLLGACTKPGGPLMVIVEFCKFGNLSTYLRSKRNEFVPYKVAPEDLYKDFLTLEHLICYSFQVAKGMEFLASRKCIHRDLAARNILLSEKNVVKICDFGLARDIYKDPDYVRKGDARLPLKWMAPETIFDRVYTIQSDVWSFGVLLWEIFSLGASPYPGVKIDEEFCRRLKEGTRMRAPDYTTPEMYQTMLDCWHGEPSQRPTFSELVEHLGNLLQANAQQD
p38 MAP kinase, sequence (Q16539 whole entry): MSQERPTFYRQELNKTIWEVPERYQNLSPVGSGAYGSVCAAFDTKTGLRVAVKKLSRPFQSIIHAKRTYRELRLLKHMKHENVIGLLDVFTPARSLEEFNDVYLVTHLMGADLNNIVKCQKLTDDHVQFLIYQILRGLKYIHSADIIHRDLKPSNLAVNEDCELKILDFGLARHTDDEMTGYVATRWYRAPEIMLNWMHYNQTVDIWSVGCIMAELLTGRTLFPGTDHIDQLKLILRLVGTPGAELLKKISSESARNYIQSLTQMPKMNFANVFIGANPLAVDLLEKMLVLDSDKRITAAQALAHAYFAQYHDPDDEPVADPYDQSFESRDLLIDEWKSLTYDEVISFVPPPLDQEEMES
T1 sequence (Q16539 whole entry): as above

For the compound `CC1(C(=O)O)CC2(C)CC(C)(C1)C(=O)N(Cc1cccc(-n3nc(C(C)(C)C)cc3NC(=O)Nc3cccc4ccccc34)c1)C2=O` (centres unmarked) [Example 11], on p38 MAP kinase, the Time-dependent entry is “No”.

As for `CC1(C(=O)O)CC2(C)CC(C)(C1)C(=O)N(Cc1cccc(-n3nc(C(C)(C)C)cc3NC(=O)Nc3ccc(Cl)cc3)c1)C2=O` (centres unmarked) [Example 12], the Time-dependent result on p38 MAP kinase is on record as “No”.

As for `CC(C)(C)c1cc(NC(=O)Nc2cccc3ccccc23)n(-c2cccc(CC(=O)N3CCOCC3)c2)n1` [Example 21, 1-{3-t-butyl-1-[3-(2-morpholino-2-oxoethyl)phenyl]-1H-pyrazol-5-yl}-3-(naphthalene-1-yl)urea], at p38 MAP kinase, the Time-dependent result was “Yes”.

For the compound `CC(C)(C)c1cc(NC(=O)Nc2cccc3ccccc23)n(-c2ccc(CN)cc2)n1` [Example 45, 1-{3-t-butyl-1-[4-(aminomethyl)phenyl]-1H-pyrazol-5-yl}-3-(naphthalen-1-yl)urea], the Time-dependent result on p38 MAP kinase is listed as “No”.

`CCOC(=O)Cc1cccc(-n2nc(C(C)(C)C)cc2NC(=O)Nc2ccc3c(c2)OCO3)c1` [Example 296, ethyl 2-(3-{5-[3-(benzo[d][1,3]dioxol-5-yl)ureido]-3-t-butyl-1H-pyrazol-1-yl}phenyl)-acetate]: the IC50 in assay [1] was found to be 3.49 µM.

Turning to `CN(C)CCc1cccc(-n2nc(C(C)(C)C)cc2NC(=O)Nc2ccc3c(c2)OCO3)c1` [Example 300, 1-(benzo[d][1,3]dioxol-5-yl)-3-{3-t-butyl 1-(3-[2-(dimethylamino)ethyl]phenyl}-1H-pyrazol-5-yl)urea], the IC50 in assay [1] was found to be 4.78 µM.

Regarding `O=C(O)Cc1cccc(-n2nc(-c3ccsc3)cc2NC(=O)Nc2cccc(Cl)c2Cl)c1` [Example 436, 2-(3-(5-(3-(2,3-dichlorophenyl)ureido)-3-(thiophen-3-yl)-1H-pyrazol-1-yl)phenyl)acetic acid], the figures for the “% @ concentration, uM” value in assay [2] (@ 0.1 uM) and in [2] (@ 1 uM) were 16% and 41%, respectively. Further, the IC50 in assay [3] came out at 0.007 µM; on B-Raf(V599E) kinase [4] it was 3.7 µM.

For `O=C(Cc1cccc(-n2nc(-c3ccccc3F)cc2NC(=O)Nc2cccc(Cl)c2Cl)c1)NCC(O)CO` (centres unmarked) [Example 459, 1-(2,3-dichlorophenyl)-3-(1-(3-(2-(2,3-dihydroxypropylamino)-2-oxoethyl)phenyl)-3-(2-fluorophenyl)-1H-pyrazol-5-yl)urea], the IC50 in assay [2] came to 0.02 µM; in assay [3] it was 0.005 µM. For the same compound, the inhibition at 10 µM on KDR kinase [5] was 33%; on B-Raf(V599E) kinase [4] it was 5%.

Regarding `O=C(Cc1ccc(-n2nc(-c3ccccc3F)cc2NC(=O)Nc2cccc(Cl)c2Cl)cc1)NCC(O)CO` (centres unmarked) [Example 471, 1-(2,3-dichlorophenyl)-3-(1-(4-(2-(2,3-dihydroxypropylamino)-2-oxoethyl)phenyl)-3-(2-fluorophenyl)-1H-pyrazol-5-yl)urea], the IC50 in [3] is 0.016 µM. In addition, the inhibition at 10 µM on B-Raf(V599E) kinase [4] stood at 39%. The inhibition at 1 µM on Abl kinase [6] came out at 14%.

Consider `O=C(Cc1ccc(-n2nc(-c3ccccc3F)cc2NC(=O)Nc2cccc(Cl)c2Cl)cc1)NC(CO)CO` [Example 473, 1-(2,3-dichlorophenyl)-3-(1-(4-(2-(1,3-dihydroxypropan-2-ylamino)-2-oxoethyl)phenyl)-3-(2-fluorophenyl)-1H-pyrazol-5-yl)urea], for which the IC50 in assay [2] is 0.004 µM; in [3], 0.03 µM. The inhibition at 10 µM on B-Raf(V599E) kinase [4] amounted to 4%.

In the case of `O=C(Cc1cccc(-n2nc(C3CCCC3)cc2NC(=O)Nc2cccc(Cl)c2Cl)c1)NCCO` [Example 488, 1-(3-cyclopentyl-1-(3-(2-(2-hydroxyethylamino)-2-oxoethyl)phenyl)-1H-pyrazol-5-yl)-3-(2,3-dichlorophenyl)urea], the IC50 in assay [2] came to 0.54 µM; in [3], 0.007 µM. The inhibition at 1 µM on B-Raf(V599E) kinase [4] was 21%; on KDR kinase [7] (read-out: Results, % @ concentration μM), 41%.

Regarding `CC(C)(C)c1cc(NC(=O)Nc2cccc(Oc3cccnc3)c2)n(-c2cccc(CC(N)=O)c2)n1` [Example 500, 1-(1-(3-(2-amino-2-oxoethyl)phenyl)-3-tert-butyl-1H-pyrazol-5-yl)-3-(3-(pyridin-3-yloxy)phenyl)urea], the IC50 in [3] worked out at 0.017 µM; against B-Raf(V599E) kinase [8], 0.01 µM; at Abl kinase [9], 0.021 µM; at KDR kinase [7], 9 nM.

In the case of `NC(=O)Cc1cccc(-n2nc(C(F)(F)F)cc2NC(=O)Nc2cccc(Oc3cccnc3)c2)c1` [Example 503, 1-(1-(3-(2-amino-2-oxoethyl)phenyl)-3-(trifluoromethyl)-1H-pyrazol-5-yl)-3-(3-(pyridin-3-yloxy)phenyl)urea], the IC50 on B-Raf(V599E) kinase [8] was found to be 0.13 µM; against Abl kinase [9], 0.29 µM; against KDR kinase [7], 190 nM.

For the compound `C=C1NS(=O)(=O)N(Cc2cccc(-n3nc(C(C)(C)C)cc3NC(=O)Nc3cccc(Cl)c3Cl)c2)C1=O` [Example 511, 1-{5-t-butyl-2-[3-(4-methylene-1,1,3-trioxo-[1,2,5]thiadiazolidin-2-ylmethyl)-phenyl]-2H-pyrazol-3-yl}-3-(2,3-dichlorophenyl)-urea], the IC50 in [2] turned out to be 0.024 µM; on B-Raf(V599E) kinase [8] it was 1.7 µM; against Abl kinase [9], 0.25 µM; against KDR kinase [7], 14 nM.

`NC(=O)Cc1cccc(-n2nc(C3CCCC3)cc2NC(=O)Nc2ccc(-c3cccc4c3CNC4=O)cc2)c1` [Example 512, 1-(1-(3-(2-amino-2-oxoethyl)phenyl)-3-cyclopentyl-1H-pyrazol-5-yl)-3-(4-(1-oxoisoindolin-4-yl)phenyl)urea]: the IC50 in assay [2] stood at 0.032 µM; against Abl kinase [9], 0.11 µM; at KDR kinase [7], 29 nM. Also, the “Results, % @ concentration μM” value in assay [3] was 82% @1.0.

For `Cn1c(=O)c(-c2cccc(NC(=O)Nc3cc(C4CCCC4)nn3-c3cccc(CC(N)=O)c3)c2)cc2cncnc21` [Example 514, 1-(1-(3-(2-amino-2-oxoethyl)phenyl)-3-cyclopentyl-1H-pyrazol-5-yl)-3-(3-(8-methyl-7-oxo-7,8-dihydropyrido[2,3-d]pyrimidin-6-yl)phenyl)urea], the IC50 turned out to be 0.57 µM in assay [2], 0.011 µM in assay [3], 0.077 µM against Abl kinase [9] and 33 nM on KDR kinase [7].

Consider `Cc1ccc(NC(=O)Nc2cc(C(C)(C)C)nn2-c2cccc(CC(N)=O)c2)cc1Nc1ncccn1` [Example 515, 1-(1-(3-(2-amino-2-oxoethyl)phenyl)-3-tert-butyl-1H-pyrazol-5-yl)-3-(4-methyl-3-(pyrimidin-2-ylamino)phenyl)urea], for which the “Results, % @ concentration μM” value in [3] was found to be 90% @1.0. For the same compound, at B-Raf(V599E) kinase [4], the inhibition at 1 µM amounted to 27%.

With `Cc1ccc(NC(=O)Nc2cc(C(C)(C)C)nn2-c2cccc(CC(=O)NCC(O)CO)c2)cc1Nc1nccc(-c2cccnc2)n1` (centres unmarked) [Example 517, 1-(3-tert-butyl-1-(3-(2-(2,3-dihydroxypropylamino)-2-oxoethyl)phenyl)-1H-pyrazol-5-yl)-3-(4-methyl-3-(4-(pyridin-3-yl)pyrimidin-2-ylamino)phenyl)urea], the IC50 at B-Raf(V599E) kinase [4] was determined as 0.075 µM; on Abl kinase [9] it was 0.0022 µM.
